# Reference: US9801960B2, “Probe for a biological specimen and labelling method and screening method using the probe” (CANON KABUSHIKI KAISHA, priority 2008, dated 2017)
# What was measured:
# [1] = Excitation and fluorescence emission wavelength measurement; format: physicochemical; set-up: Stokes shift (λem − λex): unit not given here; details: aqueous solution: 10 mg/mL solution in DMSO diluted 500-fold with purified water
# Protocol: It should be noted that the excitation wavelength and the fluorescence emission wavelength of the staining compound were determined by measuring an aqueous solution, which had been obtained by diluting 500-fold a 10 mg/mL solution of the staining compound in DMSO with purified water, with a fluorescence spectrophotometer FL 4500 manufactured by Hitachi High-Technologies Corporation.
# [2] = system: Zebrafish juveniles; assay: In vivo labelling of Zebrafish juveniles with probe for biological specimen; set-up: key to Staining property: +++: stained; −: no stained; key to Fluorescence sensitivity: +++: strongly observed; ++: moderately observed; +: weakly observed; −: no stained; details: 1 hour; for Site(s) to be labelled: 10 ng/mL in water, stereoscopic microscope; for Fluorescence sensitivity / Staining property: 10 ng/mL; for Fluorescence sensitivity: fluorescence intensity visually evaluated; for Staining property: visually evaluated
# Protocol: Five juveniles of Zebrafish were put into one well of a well plate together with rearing water. After rearing water had been discharged, 1 mL of distilled water was added to the well, and a solution of a staining compound (1) in DMSO was further added thereto so as to achieve a concentration of 10 ng/mL, followed by gentle stirring (pipetting). Further, Egg Water was prepared by dissolving artificial seawater SEALIFE (manufactured by Marinetech Co., Ltd.) in distilled water at a concentration of 60 mg/L. After the whole had been left to stand for 1 hour, distilled water in the well was discharged and replaced by 1 mL of fresh Egg Water. In addition, such an operation that Egg Water was discharged and replaced by 1 mL of fresh Egg Water was repeated twice. One of the juveniles was taken out from the well onto a dish, supplemented with 100 μL of a 3% methylcellulose aqueous solution to fix the movement of the juvenile, and photographed with a stereoscopic microscope (MZ10F: manufactured by Leica Microsystems K.K.).
# The same operation as that in Example 1 was performed except that the staining compound (1) used in Example 1 was changed to any one of the staining compounds described in Table 1.
# The same operation as that in Example 1 was performed except that the staining compound (1) used in Example 1 was changed to any one of indocyanine green (ICG) and fluorescein.
# The staining property of each of the staining compounds of Labelled Examples 1 to 78 and Labelled Comparative Examples 1 and 2 was visually evaluated (+++: stained and −: no stained).
# The fluorescence intensity of each of the staining compounds of Labelled Examples 1 to 78 and Labelled Comparative Examples 1 and 2 was visually evaluated (+++: strongly observed, ++: moderately observed, +: weakly observed, and −: no stained).
# [3] = Storage stability of staining compound solution in DMSO; format: physicochemical; details: 10 ng/mL in DMSO, closed glass container, normal temperature, 1 month; rate of change of absorbance and fluorescence intensity
# Protocol: A 10 ng/mL solution of each of the staining compounds of Labelled Examples 1 to 78 and Labelled Comparative Examples 1 and 2 in DMSO was prepared, charged into a well-closed container made of glass, and left to stand still at normal temperature for 1 month. The absorbance and the fluorescence intensity at the time of the start of a storage stability test were measured at a given wavelength, and their rates of change were examined (+++: rates of change of the absorbance and the fluorescence intensity are less than 5%, and thus, the storage stability is highly excellent; ++: rates of change of the absorbance and fluorescence intensity are 5 to 15%, and thus, the storage stability is excellent; and −: rates of change of the absorbance and fluorescence intensity are more than 15%, and thus, the storage stability is poor).
Excitation wavelength λex [1] [nm],Fluorescence emission wavelength λem [1] [nm],Stokes shift (λem − λex) [1],SMILES,Site(s) to be labelled [2],Fluorescence sensitivity [2],Staining property [2],Storage stability [3]
531,633,102,O=C(O)CN1C(=O)/C(=C\c2ccc3c(c2)C2CCCC2N3c2ccccc2)SC1=S (stereo not drawn) [Dye 1],"blood vessel, gallbladder, and gastrointestinal",+++,+++,"+++ (rates of change of the absorbance and the fluorescence intensity are less than 5%, and thus, the storage stability is highly excellent)"
482,609,127,O=C(O)CN1C(=O)/C(=C\c2cc(Br)c3c(c2)C2CCCC2N3c2ccc(Br)cc2)SC1=S (stereo not drawn) [Dye 2],"blood vessel, liver, and gastrointestinal tract",+++,+++,"+++ (rates of change of the absorbance and the fluorescence intensity are less than 5%, and thus, the storage stability is highly excellent)"
525,607,82,O=C(O)CN1C(=O)/C(=C\c2ccc3c(c2)C2CCCC2N3Cc2ccccc2)SC1=S (stereo not drawn) [Dye 3],"blood vessel, gallbladder, and gastrointestinal",+++,+++,"+++ (rates of change of the absorbance and the fluorescence intensity are less than 5%, and thus, the storage stability is highly excellent)"
482,580,98,N#C/C(=C\c1ccc2c(c1)C1CCCC1N2Cc1ccccc1)C(=O)O (stereo not drawn) [Dye 5],"liver, gallbladder, and gastrointestinal tract",++,+++,"+++ (rates of change of the absorbance and the fluorescence intensity are less than 5%, and thus, the storage stability is highly excellent)"
498,601,103,N#C/C(=C\c1ccc2c(c1)C1CCCC1N2c1ccc(C=C(c2ccccc2)c2ccccc2)cc1)C(=O)O (stereo not drawn) [Dye 7],blood vessel and liver,+++,+++,"+++ (rates of change of the absorbance and the fluorescence intensity are less than 5%, and thus, the storage stability is highly excellent)"
588,668,80,O=C(O)Cn1c(=O)/c(=C\c2ccc3c(c2)C2CCCC2N3Cc2ccccc2)s/c1=C1/SC(=S)N(Cc2ccccc2)C1=O (stereo not drawn) [Dye 11],"blood vessel, liver, and gastrointestinal tract",++,+++,"+++ (rates of change of the absorbance and the fluorescence intensity are less than 5%, and thus, the storage stability is highly excellent)"
477,567,90,N#C/C(=C\c1ccc2c(c1)C1CCCC1N2c1ccccc1)C(=O)O (stereo not drawn) [Dye 13],liver and gastrointestinal tract,++,+++,"+++ (rates of change of the absorbance and the fluorescence intensity are less than 5%, and thus, the storage stability is highly excellent)"
610,675,65,COc1ccc2cc(N3c4ccc(/C=C5\C(=O)N(c6ccccc6)N=C5C(=O)O)cc4C4CCCC43)ccc2c1 (stereo not drawn) [Dye 14],gallbladder,++,+++,"+++ (rates of change of the absorbance and the fluorescence intensity are less than 5%, and thus, the storage stability is highly excellent)"
527,636,109,CSc1ccc(N2c3ccc(/C=C4/SC(=S)N(CC(=O)O)C4=O)cc3C3CCCC32)cc1 (stereo not drawn) [Dye 17],"blood vessel, liver, and gastrointestinal tract",+++,+++,"+++ (rates of change of the absorbance and the fluorescence intensity are less than 5%, and thus, the storage stability is highly excellent)"
533,661,128,COc1ccc2cc(N3c4ccc(/C=C5/SC(=S)N(CCC(=O)O)C5=O)cc4C4CCCC43)ccc2c1 (stereo not drawn) [Dye 20],"blood vessel, liver, and gastrointestinal tract",+++,+++,"+++ (rates of change of the absorbance and the fluorescence intensity are less than 5%, and thus, the storage stability is highly excellent)"
570,598,28,CC1=NN(c2ccccc2)C(=O)/C1=C\c1cc(Br)c2c(c1)C1CCCC1N2c1ccc(Br)cc1 (stereo not drawn) [Dye 22],liver and gastrointestinal tract,+++,+++,"++ (rates of change of the absorbance and fluorescence intensity are 5 to 15%, and thus, the storage stability is excellent)"
566,611,45,O=C(O)C[n+]1c(/C=C/c2ccc3c(c2)C2CCCC2N3Cc2ccccc2)sc2ccccc21 (stereo not drawn) [Dye 24],nose,+++,+++,"+++ (rates of change of the absorbance and the fluorescence intensity are less than 5%, and thus, the storage stability is highly excellent)"
394,554,160,N#C/C(=C\c1cc(Br)c2c(c1)C1CCCC1N2Cc1cccc(Br)c1)C(=O)O (stereo not drawn) [Dye 25],gastrointestinal tract,++,+++,"+++ (rates of change of the absorbance and the fluorescence intensity are less than 5%, and thus, the storage stability is highly excellent)"
518,575,57,O=C(O)CCN1C(=O)/C(=C\c2cc(Br)c3c(c2)C2CCCC2N3c2ccc(Br)cc2)SC1=S (stereo not drawn) [Dye 29],"blood vessel, gallbladder, and liver",+++,+++,"+++ (rates of change of the absorbance and the fluorescence intensity are less than 5%, and thus, the storage stability is highly excellent)"
502,644,142,CCN1C(=O)/C(=c2\s/c(=C/c3ccc4c(c3)C3CCCC3N4c3ccccc3)c(=O)n2CC(=O)O)SC1=S (stereo not drawn) [Dye 30],,+++,+++,"+++ (rates of change of the absorbance and the fluorescence intensity are less than 5%, and thus, the storage stability is highly excellent)"
560,677,117,COc1ccc(N2c3ccc(/C=C/c4sc5ccccc5[n+]4CC(=O)O)cc3C3CCCC32)cc1 (stereo not drawn) [Dye 31],nose,+++,+++,"+++ (rates of change of the absorbance and the fluorescence intensity are less than 5%, and thus, the storage stability is highly excellent)"
,,,"O=C1OC2(c3ccc(O)cc3Oc3cc(O)ccc32)c2ccccc21 [fluorescein, reference compound]",,++,+++,"++ (rates of change of the absorbance and fluorescence intensity are 5 to 15%, and thus, the storage stability is excellent)"
